Laboratory results: article PMC8424300, “Identification of novel microtubule inhibitors effective in fission yeast and human cells and their effects on breast cancer cell lines” (Open Biology, 2021)

What was measured:
CAL51 cells = assay: Clonogenic (colony-forming) assay; assay type: cell-based, human; conditions: 12 h exposure, 9 days growth
Experimental: Finally, a clonogenic assay was used to further evaluate the synergy effects between the L1 and Plk1 inhibitors to inhibit colony formation of breast cancer CAL51 cells after a 12 h drug exposure. The percentages of colony formation of cells treated with 0.1 nM BI2536 alone and 0.5 µM L1 alone were 89% and 67%, respectively, while cells treated with both 0.1 nM BI2536 and 0.5 µM L1 together were 2% (figure 10) indicating strong synergetic effects in colony formation.
Figure 10. Quantification of the colony formation experiments (n = 3) after a 12 h exposure. CAL51 cells were treated with vehicle control, 0.1 nM BI2536, 0.5 µM L1 or 0.1 nM BI2536 and 0.5 µM L1 for 12 h. Cells were grown for 9 days in fresh media after 12 h exposure. Mean ± s.e.m. (n = 3) is shown.
CAL51 cells were plated at a density of 200 cells per 60 mm tissue culture dish. After 24 h, they were treated with vehicle (DMSO), 0.1 nM BI2538, 0.5 µM L1 or the combination of 0.1 nM BI2538 and 0.5 µM L1, respectively, for 12 h. After an exposure, the cells were washed with warm sterile PBS, and incubated for additional 9 days in fresh media. After the incubation, cells were fixed and stained with a 20% MeOH: 0.01% crystal violet solution for 30 min. Colonies were counted using a stereomicroscope in three independent experiments.

[1] = test system: BT549, CAL51 and MB-157 breast cancer cell lines; assay: Viability dose-response in breast cancer cell lines; assay type: cell-based; conditions: Homo sapiens, 96 h; range over three breast cancer cell lines; 4 days of treatment
Experimental: The sensitivity of the inhibitors L1, J3, A15 and M2 were evaluated in three breast cancer cell lines, (BT549, CAL51 and MB-157) and a non-cancer cell line from the human mammary gland, MCF-10A (figure 8). Drug sensitivity was determined by culturing breast cancer cell lines (black lines) and the non-cancer cell line (red line) with a range of concentrations of each compound, and viability was measured after 4 days of treatment in triplicate.
Figure 8. Dose–response curves in three cancer cell lines (BT549, CAL51 and MB-157) are shown in black and non-cancer cell line; MCF-10A is shown in red. They were subjected to a dose–response matrix of the tubulin inhibitor, L1, A15, M2 and J3, respectively. Viability relative to the vehicle control was measured […] after treatment. Mean ± s.e.m. for n = 3 experiments is shown.
Cells were plated in 384-well plates at a density of 800 cells per well in 22.5 µl of media. After 24 h, 2.5 µl drug was diluted in media and was added to each well. Following 5 days of incubation, viability was assessed using CellTiter-Glo (Promega) according to the manufacture's protocol. Luminescence in each well was measured using a Synergy Neo2 plate reader (BioTek).

HeLa cells = assay: Time-lapse live imaging of mitotic progression and cell fate in HeLa cells (H2B-mCherry, EGFP-α-tubulin); assay type: cell-based, human
Experimental: To determine whether these 34 compounds also induce mitotic abnormalities in human cells, a second screen of these compounds was conducted using HeLa cells. We used time-lapse microscopy to monitor mitotic progression in HeLa cells expressing mCherry-tagged histone H2B to mark chromatin, and EGFP-tagged α-tubulin to monitor microtubules over a 24 h time period in the presence of 2 µM of each of the 34 compounds. The duration of mitosis was determined by live-cell imaging, defined as the period from prophase to cytokinesis based on chromatin and microtubule morphologies (figure 2a). The control DMSO-treated cells progressed through mitosis with a mean mitotic duration of 77 ± 6 min. Among the 34 compounds we tested, nine caused a significant increase in mitotic duration in human cells (figure 2a), ranging from 122 ± 42 min (F15) to 720 ± 53 min (C16). […] As described in the Discussion, we have not carried out a detailed analysis for B8 in this study. To determine whether these cell deaths were caused by apoptosis, caspase activity was assayed for 24 h using time-lapse microscopy in the presence of the 12 compounds. Caspase 3 and Caspase 7 activities were observed 12–24 h after the addition of the compounds (electronic supplementary material, figure S1A). There were also other indications of apoptosis including the morphological chances reminiscing of membrane blebbing, chromatin condensation and cell explosion (electronic supplementary material, figure S1B). Caspase-mediated apoptosis induction is similar to the effects of mitotic arrest caused by anti-microtubule drugs in HeLa cells. […] We conclude that these 12 compounds cause mitotic arrest followed by cell death through apoptotic activation.
Figure 2. Effect of compounds on mitotic progression in HeLa cell (a). Duration of mitosis was analysed by live imaging of HeLa cells stably expressing H2B-mcherry (red) and EGFP-a tubulin (green) treated in the presence of 0.5 µM (K1, L1, J1) or 2 µM (C16, E2, O12, M2, I15, J3, I2, A15, F15) compound for 24 h and the time in mitosis was measured in 200 cells. DMSO-treated cells are shown, which served as the vehicle control. Show mean as ‘+’. (b). The Cell fate after mitosis (normal division, abnormal division or cell death) was quantitatively assessed after the mitotic arrest observed in (a). (c) Dose-dependent change of phenotypes after mitotic arrest with K1, L1 and J1.
For live-cell imaging experiments, 200 000 cells were seeded onto glass-bottom culture dishes (MatTek P35GC-1.5-14-C). Cells were grown overnight before the addition of the compound, and the culture media was replaced with fresh media lacking phenol red to limit phototoxicity before imaging.
Live-cell imaging was performed in a LCV110 U VivaView FL incubator microscope (Olympus) equipped with an X-Cite-exacte illumination source (Excelitas Technologies) and Orca-R2 CCD camera (Hamamatsu Photonics). For screening, images were acquired with a 20 × objective every 15 min for 24–48 h in the differential interference contrast (DIC), m-cherry and GFP channels. For assessment of apoptosis, the cells were monitored every 15 min for 24 h. Individual cells were manually analysed using the CellCognition browser.

COc1cc(Br)cc2c1OC(c1ccc3c(c1)OCO3)C([N+](=O)[O-])=C2 (stereo not drawn) [L1]
percentage of colony formation (CAL51 cells; 0.1 nM BI2536 and 0.5 µM L1 together): 2%
percentage of colony formation (CAL51 cells; 0.5 µM L1 alone): 67%
IC50 [1]: 2400 to 3100 nM
cell fate (HeLa cells; 0.5 µM compound): arrested cells initially in mitosis, followed by cell death
cell fate (HeLa cells; 2 µM compound): immediately induced cell death independent of the phase of the cell cycle
phenotype after mitotic arrest (HeLa cells; 0.1 and 0.25 µM compound): abnormal multipolar, asymmetric cell divisions, generating 3–4 daughter cells
